{
  "source": "patent EP2380890A1",
  "about": "“New 7,8-dihydro-1,6-naphthyridin-5(6h)-one-derivatives as PDE4 inhibitors” (Almirall, S.A., priority 2010, dated 2011)",
  "data": [
    {"target": "PDE4", "assay": "PDE4 assay: [3H] cAMP Scintillation Proximity Assay (SPA) of phosphodiesterase activity", "format": "biochemical", "conditions": "yeast extract of recombinant PDE4 enzyme, 30 nM [3H] cAMP, 1 h at room temperature, pH 7.5", "description": "Measurement of Phosphodiesterase Activity was done using a [3H] cAMP Scintillation Proximity Assay (SPA) (GE Healthcare). Compounds to be tested were disolved in DMSO at a stock concentration of 1mM and serial dilutions were prepared in 50% DMSO to determine IC50s.\nThe reactions were conducted in 96-well plates (Corning, Ref.3604) at room temperature, in 0.1 mL of reaction buffer containing (final concentrations): 50 mM Tris-HCl, pH 7.5, 8.3 mM MgCl2, 1.7 mM EGTA, 30 nM [3H] cAMP (approximately 150000 dpm/well) with or without the inhibitors. The reaction was initiated by adding yeast extract of recombinant PDE4 enzyme.\nPlates were shaken for 1 h at room temperature and the incubation was terminated by adding 50 µL (0.5 mg /well) of SPA ytrium silicate beads (RPNQ 0150; GE Healthcare) in the presence of zinc sulfate. Plates were stored overnight in the dark and read on a TRILUX microtiter plate reader (Perkin Elmer).", "units": {"IC50": "nM"}, "values": [
      {"smiles": "O=C1NCCc2nc(-c3ccccc3)cc(Nc3n[nH]c4ncccc34)c21", "note": "[Example 41, 2-Phenyl-4-(1H-pyrazolo[3,4-b]pyridin-3-ylamino)-7,8-dihydro-1,6-naphthyridin-5(6H)-one]", "IC50": 6},
      {"smiles": "O=C(NC1CC1)c1cccc(-c2cccc(-c3cc(Nc4cccc5c4ccc[n+]5[O-])c4c(n3)CCNC4=O)c2)c1", "note": "[Example 56, N-Cyclopropyl-3'-{4-[(1-oxidoquinolin-5-yl)amino]-5-oxo-5,6,7,8-tetrahydro-1,6-naphthyridin-2-yl}biphenyl-3-carboxamide]", "IC50": 0.05},
      {"smiles": "COc1cccc(Nc2cc(C3CC3)nc3c2C(=O)NCC3)c1", "note": "[Example 33, 2-Cyclopropyl-4-[(3-methoxyphenyl)amino]-7,8-dihydro-1,6-naphthyridin-5(6H)-one]", "IC50": 9},
      {"smiles": "COc1cccc(Nc2cc(-c3cccc(OC)c3)nc3c2C(=O)NCC3)c1", "note": "[Example 8, 2-(3-Methoxyphenyl)-4-[(3-methoxyphenyl)amino]-7,8-dihydro-1,6-naphthyridin-5(6H)-one]", "IC50": 8},
      {"smiles": "O=C1NCCc2nc(-c3ccccc3)cc(Nc3ccc4ncccc4c3)c21", "note": "[Example 38, 2-Phenyl-4-(quinolin-6-ylamino)-7,8-dihydro-1,6-naphthyridin-5(6H)-one]", "IC50": 2.3},
      {"smiles": "N#C/N=C1\\NCCc2nc(-c3ccc(F)c(F)c3)cc(Nc3cccc4ncccc34)c21", "note": "[Example 57, [(5Z)-2-(3,4-Difluorophenyl)-4-(quinolin-5-ylamino)-7,8-dihydro-1,6-naphthyridin-5(6H)-ylidene]cyanamide]", "IC50": 0.9},
      {"smiles": "COc1cccc(Nc2cc(-c3ccccc3)nc3c2C(=O)NCC3)c1", "note": "[Example 1, 4-[(3-Methoxyphenyl)amino]-2-phenyl-7,8-dihydro-1,6-naphthyridin-5(6H)-one]", "IC50": 1.6},
      {"smiles": "O=C1NCCc2nc(-c3ccccc3)cc(NCc3ccncc3)c21", "note": "[Example 17, 2-Phenyl-4-[(pyridin-4-ylmethyl)amino]-7,8-dihydro-1,6-naphthyridin-5(6H)-one]", "IC50": 25},
      {"smiles": "CN(C)CCCNC(=O)c1cccc(-c2cccc(-c3cc(Nc4cccc5ncccc45)c4c(n3)CCNC4=O)c2)c1", "note": "[Example 59, N-[3-(Dimethylamino)propyl]-3'-[5-oxo-4-(quinolin-5-ylamino)-5,6,7,8-tetrahydro-1,6-naphthyridin-2-yl]biphenyl-3-carboxamide]", "IC50": 0.105},
      {"smiles": "O=C1NCCc2nc(-c3ccccc3)cc(Nc3ccc(C[C@@H](O)CO)cc3)c21", "note": "[Example 47, 4-({4-[(2R)-2,3-dihydroxypropyl]phenyl}amino)-2-phenyl-7,8-dihydro-1,6-naphthyridin-5(6H)-one]", "IC50": 9},
      {"smiles": "NC(=O)c1ccc(Nc2cc(-c3ccccc3)nc3c2C(=O)NCC3)cc1", "note": "[Example 18, 4-[(5-Oxo-2-phenyl-5,6,7,8-tetrahydro-1,6-naphthyridin-4-yl)amino]benzamide]", "IC50": 1.5},
      {"smiles": "COc1cccc(Nc2nc(-c3ccccc3)nc3c2C(=O)NCC3)c1", "note": "[Example 32, 4-[(3-Methoxyphenyl)amino]-2-phenyl-7,8-dihydropyrido[4,3-d]pyrimidin-5(6H)-one]", "IC50": 52},
      {"smiles": "O=C(O)c1ccc(Nc2cc(-c3ccccc3)nc3c2C(=O)NCC3)cc1", "note": "[Example 25, 4-[(5-Oxo-2-phenyl-5,6,7,8-tetrahydro-1,6-naphthyridin-4-yl)amino]benzoic acid]", "IC50": 9},
      {"smiles": "O=C1NCCc2nc(-c3ccccc3)cc(Nc3ccc(CCO)cc3)c21", "note": "[Example 2, 4-{[4-(2-Hydroxyethyl)phenyl]amino}-2-phenyl-7,8-dihydro-1,6-naphthyridin-5(6H)-one]", "IC50": 12},
      {"smiles": "COc1cc(Nc2cc(-c3ccccc3)nc3c2C(=O)NCC3)ccc1C(=O)O", "note": "[Example 19, 2-Methoxy-4-[(5-oxo-2-phenyl-5,6,7,8-tetrahydro-1,6-naphthyridin-4-yl)amino]benzoic acid]", "IC50": 2.3},
      {"smiles": "COc1cccc(Nc2cc(-c3ccccc3)nc3c2C(=O)NC(C)C3)c1", "note": "(stereo not drawn) [Example 26, 4-[(3-Methoxyphenyl)amino]-7-methyl-2-phenyl-7,8-dihydro-1,6-naphthyridin-5(6H)-one]", "IC50": 117},
      {"smiles": "O=C1NCCc2nc(-c3ccccc3)cc(Nc3cccc4cnccc34)c21", "note": "[Example 37, 4-(Isoquinolin-5-ylamino)-2-phenyl-7,8-dihydro-1,6-naphthyridin-5(6H)-one]", "IC50": 14},
      {"smiles": "O=C(NC1CC1)c1cccc(-c2cccc(-c3cc(Nc4cccc5ncccc45)c4c(n3)CCNC4=O)c2)c1", "note": "[Example 49, N-Cyclopropyl-3'-[5-oxo-4-(quinolin-5-ylamino)-5,6,7,8-tetrahydro-1,6-naphthyridin-2-yl]biphenyl-3-carboxamide]", "IC50": 0.17},
      {"smiles": "COc1cccc(Nc2cc(-c3cccc(-c4cccc(C(=O)NCCN(C)C)c4)c3)nc3c2C(=O)NCC3)c1", "note": "[Example 14, N-[2-(Dimethylamino)ethyl]-3'-{4-[(3-methoxyphenyl)amino]-5-oxo-5,6,7,8-tetrahydro-1,6-naphthyridin-2-yl}biphenyl-3-carboxamide]", "IC50": 0.23},
      {"smiles": "COc1cccc(Nc2cc(-c3ccncc3)nc3c2C(=O)NCC3)c1", "note": "[Example 22, 4-[(3-Methoxyphenyl)amino]-2-pyridin-4-yl-7,8-dihydro-1,6-naphthyridin-5(6H)-one]", "IC50": 3.6},
      {"smiles": "O=C1NCCc2nc(-c3ccccc3)cc(Nc3cccc4ncccc34)c21", "note": "[Example 24, 2-Phenyl-4-(quinolin-5-ylamino)-7,8-dihydro-1,6-naphthyridin-5(6H)-one]", "IC50": 0.96},
      {"smiles": "COc1cccc(Nc2cc(-c3ccccc3OC)nc3c2C(=O)NCC3)c1", "note": "[Example 9, 2-(2-Methoxyphenyl)-4-[(3-methoxyphenyl)amino]-7,8-dihydro-1,6-naphthyridin-5(6H)-one]", "IC50": 32},
      {"smiles": "COc1cccc(Nc2cc(-c3cccc(-c4cccc(C(N)=O)c4)c3)nc3c2C(=O)NCC3)c1", "note": "[Example 12, 3'-{4-[(3-Methoxyphenyl)amino]-5-oxo-5,6,7,8-tetrahydro-1,6-naphthyridin-2-yl}biphenyl-3-carboxamide]", "IC50": 0.28},
      {"smiles": "COc1cccc(Nc2cc(-c3ccccc3)nc3c2C(=O)NCC3C)c1", "note": "(stereo not drawn) [Example 44, 4-[(3-Methoxyphenyl)amino]-8-methyl-2-phenyl-7,8-dihydro-1,6-naphthyridin-5(6H)-one]", "IC50": 640},
      {"smiles": "COc1cccc(Nc2cc(-c3cccc(-c4ccc(C(=O)O)cc4)c3)nc3c2C(=O)NCC3)c1", "note": "[Example 13, 3'-{4-[(3-Methoxyphenyl)amino]-5-oxo-5,6,7,8-tetrahydro-1,6-naphthyridin-2-yl}biphenyl-4-carboxylic acid]", "IC50": 0.34},
      {"smiles": "COc1cccc(Nc2cc(-c3cccc(-c4cc(C(=O)O)ccc4Cl)c3)nc3c2C(=O)NCC3)c1", "note": "[Example 35, 6-Chloro-3'-{4-[(3-methoxyphenyl)amino]-5-oxo-5,6,7,8-tetrahydro-1,6-naphthyridin-2-yl}biphenyl-3-carboxylic acid]", "IC50": 0.81},
      {"smiles": "Cc1c(F)cc(C(=O)NC2CC2)cc1-c1cccc(-c2cc(Nc3cccc4ncccc34)c3c(n2)CCNC3=O)c1", "note": "[Example 61, N-Cyclopropyl-5-fluoro-6-methyl-3'-[5-oxo-4-(quinolin-5-ylamino)-5,6,7,8-tetrahydro-1,6-naphthyridin-2-yl]biphenyl-3-carboxamide]", "IC50": 0.05},
      {"smiles": "O=C1NCCc2nc(-c3ccccc3)cc(Nc3cccc4c3ccc[n+]4[O-])c21", "note": "[Example 51, 4-[(1-Oxidoquinolin-5-yl)amino]-2-phenyl-7,8-dihydro-1,6-naphthyridin-5(6H)-one]", "IC50": 0.43},
      {"smiles": "COc1cccc(Nc2cc(-c3cccc(Sc4cccc(OC)c4)c3)nc3c2C(=O)NCC3)c1", "note": "[Example 16, 4-[(3-Methoxyphenyl)amino]-2-{3-[(3-methoxyphenyl)thio]phenyl}-7,8-dihydro-1,6-naphthyridin-5(6H)-one]", "IC50": 1.6},
      {"smiles": "COc1cccc(Nc2cc(-c3cccc(-c4cc(C(=O)O)ccc4O)c3)nc3c2C(=O)NCC3)c1", "note": "[Example 43, 6-Hydroxy-3'-{4-[(3-methoxyphenyl)amino]-5-oxo-5,6,7,8-tetrahydro-1,6-naphthyridin-2-yl}biphenyl-3-carboxylic acid]", "IC50": 10}
    ]}
  ]
}
